Experimental data as given in ChEMBL document CHEMBL4308857, “Leishmania treatment and prevention: Natural and synthesized drugs” (Eur J Med Chem, 2018).
In brackets after ≈: the same amount, converted by molar mass.

Tests used:
Leishmania amazonensis [1] = experiment: Antileishmanial activity against Leishmania amazonensis MCAN/ES/92/BCN83 axenic amastigotes infected in BALB/c mouse assessed as reduction in parasitic burden at 10 mg/kg, ip administered as daily dose for 3 continuous days and measured at day 5 post last dose by limit dilution assay relative to control; format: functional; design: scale not given: the % may be the effect or the level left
Leishmania amazonensis [2] = experiment: Antileishmanial activity against Leishmania amazonensis MHOM/BR/76/LTB-012 axenic amastigotes after 72 hrs by MTT assay; format: functional, organism-based; conditions: MHOM/BR/76/LTB-012, 72 h
Leishmania donovani [3] = experiment: Antileishmanial activity against Leishmania donovani […]/IN/80/DD8 promastigotes after 72 hrs by MTT assay; format: functional, organism-based; conditions: […]/IN/80/DD8, 72 h
Leishmania donovani [4] = experiment: Antileishmanial activity against Leishmania donovani MHOM/ET/ 67/L82 amastigotes infected in BALB/c mouse assessed as reduction in parasitic load in liver at 100 mg/kg, sc qd administered for 5 days measured at 3 days post last dose relative to control; format: functional; design: scale not given: the % may be the effect or the level left
[5] = Cytotoxicity against BALB/c mouse peritoneal cells assessed as reduction in cell viability after 24 hrs by MTT assay; format: cell-based
Leishmania amazonensis [6] = experiment: Antileishmanial activity against Leishmania amazonensis […]/BR/75/Josefa promastigotes; format: functional, organism-based
Leishmania amazonensis [7] = experiment: Antileishmanial activity against Leishmania amazonensis […]/BR/75/Josefa axenic amastigotes infected in mouse J774A1 cells; format: functional, organism-based; conditions: J774.A1
Leishmania donovani [8] = experiment: Antileishmanial activity against wild type Leishmania donovani LV9 promastigotes by MTT assay; format: functional, organism-based
[9] = system: Mycobacterium tuberculosis; experiment: Antitubercular activity against Mycobacterium tuberculosis H37Rv ATCC 27294 after 7 to 10 days by Resazurin microtiter assay; format: functional, organism-based
[10] = Cytotoxicity against human U937 cells assessed as reduction in cell viability after 72 hrs by MTT assay; format: cell-based, U-937; conditions: read-out: LD50
Leishmania panamensis = experiment: Antileishmanial activity against GFP-fused Leishmania panamensis MHOM/CO/87/UA140pIR amastigotes infected in human U937 cells after 72 hrs by flow cytometric analysis; format: functional, organism-based; conditions: U-937, 72 h
Leishmania infantum [11] = experiment: Antileishmanial activity against zymodemes of Leishmania infantum MCAN/ES/90/DP204 promastigotes by Neubauer chamber analysis; format: functional, organism-based
Leishmania amazonensis [12] = experiment: Antileishmanial activity against Leishmania amazonensis promastigotes; format: functional, organism-based
Leishmania amazonensis [13] = experiment: Antileishmanial activity against Leishmania amazonensis axenic amastigotes; format: functional, organism-based
Leishmania amazonensis [14] = experiment: Antileishmanial activity against Leishmania amazonensis MHOM/BR/77/LTB0016 promastigotes after 24 hrs; format: functional, organism-based; conditions: MHOM/BR/77/LTB0016, 24 h
Leishmania infantum [15] = experiment: Antileishmanial activity against Leishmania infantum MCAN/BR/97/P142 promastigotes after 24 hrs; format: functional, organism-based; conditions: MCAN/BR/97/P142, 24 h
Leishmania amazonensis [16] = experiment: Antileishmanial activity against Leishmania amazonensis MHOM/BR/75/Josefa axenic amastigotes after 72 hrs by Neubauer hemocytometric analysis; format: functional, organism-based
Leishmania amazonensis [17] = experiment: Antileishmanial activity against Leishmania amazonensis MHOM/BR/75/Josefa intracellular amastigotes after 72 hrs by Neubauer hemocytometric analysis; format: functional, organism-based
Leishmania amazonensis [18] = experiment: Antileishmanial activity against Leishmania amazonensis MHOM/BR/75/Josefa promastigotes after 72 hrs by Neubauer hemocytometric analysis; format: functional, organism-based
Leishmania aethiopica = experiment: Antileishmanial activity against Leishmania aethiopica amastigotes; format: functional, organism-based
Leishmania mexicana [19] = experiment: Antileishmanial activity against Leishmania mexicana LV4 promastigotes; format: functional, organism-based
Leishmania mexicana [20] = experiment: Antileishmanial activity against Leishmania mexicana LV4 amastigotes infected in BALB/c bone marrow-derived macrophages assessed as reduction in cell viability after 2 hrs by trypan blue staining based bright-field microscopic analysis; format: functional, organism-based; conditions: LV4, 2 h
Leishmania amazonensis [21] = experiment: Antileishmanial activity against Leishmania amazonensis promastigotes assessed as reduction in parasitic growth after 5 to 7 days by Neubauer chamber analysis; format: functional, organism-based
Leishmania major [22] = experiment: Antileishmanial activity against Leishmania major amastigotes; format: functional, organism-based
[23] = system: Leishmania mexicana venezuelensis; experiment: Antileishmanial activity against Leishmania venezuelensis MHOM/VE/74/PM-H3 amastigotes infected in BALB/c mouse assessed as reduction in parasitic load in footpad at 14 to 56 mg/kg, sc bid treated for 15 days at interval of 4 days and measured at 1 week post last dose by Giemsa staining-based inverted microscopic analysis relative to control; format: functional; design: scale not given: the % may be the effect or the level left
Leishmania donovani [24] = experiment: Antileishmanial activity against Leishmania donovani amastigotes infected in mouse J774G8 cells after 48 to 72 hrs by Giemsa staining-based bright-field microscopic analysis; format: functional, organism-based
Leishmania donovani [25] = experiment: Antileishmanial activity against Leishmania donovani promastigotes after 48 hrs by MTT assay; format: functional, organism-based
Leishmania donovani [26] = experiment: Antileishmanial activity against Leishmania donovani MHOM/SD/00/1SD2D axenic amastigotes infected in human peripheral blood mononuclear cells after 3 days by 3H-thymidine incorporation assay; format: functional, organism-based
Leishmania major [27] = experiment: Antileishmanial activity against Leishmania major MHOM/IL/67/LRC-L137 promastigotes after 2 hrs by 3H-thymidine incorporation assay; format: functional, organism-based
Leishmania donovani [28] = experiment: Antileishmanial activity against Leishmania donovani promastigotes infected in hamster assessed as reduction in parasitic load in liver at 20 mg/kg, ip treated for 6 consecutive days measured at day 8 post last dose by 3H-thymidine incorporation assay relative to control; format: functional; design: scale not given: the % may be the effect or the level left
Leishmania donovani [29] = experiment: Antileishmanial activity against Leishmania donovani promastigotes infected in hamster assessed as reduction in parasitic load in spleen at 20 mg/kg, ip treated for 6 consecutive days measured at day 8 post last dose by 3H-thymidine incorporation assay relative to control; format: functional; design: scale not given: the % may be the effect or the level left
Leishmania donovani [30] = experiment: Antileishmanial activity against Leishmania donovani promastigotes infected in golden hamster assessed as reduction in parasitic load in spleen at 3.5 mg/kg, po administered 2 times a week for 4 weeks starting at 4 days post-infection measured 1 week post last dose by Giemsa staining-based assay relative to control; format: functional; design: scale not given: the % may be the effect or the level left
Leishmania donovani [31] = experiment: Antileishmanial activity against Leishmania donovani promastigotes infected in golden hamster assessed as reduction in parasitic load in spleen at 14 mg/kg, po administered 2 times a week for 4 weeks starting at 4 days post-infection measured 1 week post last dose by Giemsa staining-based assay relative to control; format: functional; design: scale not given: the % may be the effect or the level left
Leishmania donovani [32] = experiment: Antileishmanial activity against Leishmania donovani intracellular amastigotes infected in mouse J774A.1 cells by flow cytometry; format: functional, organism-based; conditions: J774.A1

SMILES: O=C1c2ccccc2C2=NCCc3cccc1c32
- Activity (Leishmania amazonensis [1]): <=90%
- IC50 (Leishmania amazonensis [2]): < 50 nM

SMILES: O=c1oc2ccccc2c(O)c1C(c1ccccc1)c1c(O)c2ccccc2oc1=O
- IC50 (Leishmania donovani [3]): 155 µg/mL (≈ 376 µM)

SMILES: CC(=O)O[C@@]12CO[C@@H]1C[C@H](O)[C@@]1(C)C(=O)[C@H](O)C3=C(C)[C@@H](O)C[C@@](O)([C@@H](OC(=O)c4ccccc4)[C@H]21)C3(C)C
- Activity (Leishmania donovani [4]): 42%

SMILES: Cc1nn(-c2ccc(S(=O)(=O)Nc3ccccc3)cc2)c(Cl)c1Br
- CC50 at 24 h [5]: 144 µM

SMILES: CCCCNC(=O)c1cc2c([nH]c3ccccc32)c(-c2ccc(OC)cc2)n1
- IC50 (Leishmania amazonensis [6]): 4.44 µM
- IC50 (Leishmania amazonensis [7]): 12.5 µM

SMILES: COc1ccc(N[C@]2(C(F)(F)F)O[C@@H]3O[C@@]4(C)CC[C@H]5[C@H](C)CC[C@@H]([C@H]2C)[C@@]35OO4)cc1
- IC50 (Leishmania donovani [8]): 1500 nM

SMILES: COc1ccc(C(c2c(O)c3ccccc3oc2=O)c2c(O)c3ccccc3oc2=O)c(OC)c1
- IC50 (Leishmania donovani [3]): 158 µg/mL (≈ 333 µM)

SMILES: COC(=O)CC[C@@H](C)[C@H]1CC[C@H]2[C@@H]3[C@H](O)C[C@@H]4C[C@@H](n5cc(CNCCNc6ccnc7cc(Cl)ccc67)nn5)CC[C@]4(C)[C@H]3C[C@H](O)[C@]12C
- IC50 [9]: 10.6 µM

SMILES: O=C1C2=C(CCCC2)C2=NCCc3cccc1c32
- IC50 (Leishmania amazonensis [2]): 25 nM

SMILES: O=c1ccoc2cc(OCCCCOc3cc(Cl)ccc3Oc3ccc(Cl)cc3Cl)ccc12
- CC50 at 72 h [10]: 15.8 µg/mL (≈ 31.2 µM)
- EC50 (Leishmania panamensis): 7.5 µg/mL (≈ 14.8 µM)

SMILES: CC(C)=CCC[C@@](C)(O)C1CC=C(C)CC1 (some centres not stated)
- IC50 (Leishmania infantum [11]): 11 µg/mL (≈ 49.4 µM)

SMILES: Cc1cc(=O)oc2cc(OCCCCOc3cc(Cl)ccc3Oc3ccc(Cl)cc3Cl)ccc12
- CC50 at 72 h [10]: > 200 µg/mL
- EC50 (Leishmania panamensis): 27.5 µg/mL (≈ 52.9 µM)

SMILES: Cc1cccc(-c2ccn(S(=O)(=O)c3ccccc3)n2)c1NS(=O)(=O)c1ccccc1
- IC50 (Leishmania amazonensis [12]): 6.7 µM
- IC50 (Leishmania amazonensis [13]): 56 µM

SMILES: Cc1nn(-c2ccc(S(=O)(=O)Nc3ccc(Cl)cc3)cc2)c(Cl)c1Br
- IC50 (Leishmania amazonensis [14]): 72 nM
- CC50 at 24 h [5]: 116 µM
- IC50 (Leishmania infantum [15]): 65 nM

SMILES: C/C=C/c1ccc2oc(-c3ccc(O)c(OC)c3)c(C)c2c1
- IC50 (Leishmania amazonensis [16]): 13 µg/mL (≈ 44.2 µM)
- IC50 (Leishmania amazonensis [17]): 5 µg/mL (≈ 17 µM)
- IC50 (Leishmania amazonensis [18]): 9 µg/mL (≈ 30.6 µM)

SMILES: COc1cc(OC)c(C(c2c(O)c3ccccc3oc2=O)c2c(O)c3ccccc3oc2=O)c(OC)c1
- IC50 (Leishmania donovani [3]): 150 µg/mL (≈ 299 µM)

SMILES: CCC(=O)N1N=C(c2ccccc2)CC1c1cn(-c2ccccc2)nc1-c1ccc(C)cc1 (configuration not stated)
- IC50 (Leishmania aethiopica): 0.112 µg/mL (≈ 0.258 µM)

SMILES: C=CCCCCC/C=C\CC#CC#C[C@@H](O)C=C
- IC50 (Leishmania mexicana [19]): 550 nM
- IC50 (Leishmania mexicana [20]): 480 nM

SMILES: C[C@@]12C[C@H]3OC(=O)[C@@H]1CO[C@]14O[C@@]5([C@H]2C1=O)[C@@]3(C)OC(=O)[C@@]5(O)CC[C@H]1[C@H]4C[C@H]2O[C@]23CC=CC(=O)[C@]13C
- IC50 (Leishmania amazonensis [21]): 1400 nM

SMILES: CC(C)c1nc2nc(N)nc(N)c2nc1C(C)C
- IC50 (Leishmania major [22]): 500 nM

SMILES: C/C=C/c1ccc2ccccc2n1 [CHIMANINE B]
- Activity [23]: 95%

SMILES: C/C=C1\C(=O)O[C@]23C=C[C@@H]4C(C(=O)OC)=CO[C@H](O[C@@H]12)[C@@H]43 [ISOPLUMERICIN]
- IC50 (Leishmania donovani [24]): 1410 nM
- IC50 (Leishmania donovani [25]): 3.17 µM

SMILES: C=CC(C)(C)c1cc(/C=C/C(=O)c2ccc(O)cc2)c(OC)cc1O [LICOAGROCHACONE A]
- IC50 (Leishmania donovani [26]): 0.9 µg/mL (≈ 2.66 µM)
- IC50 (Leishmania major [27]): 7.2 µg/mL (≈ 21.3 µM)
- Activity (Leishmania donovani [28]): >90%
- Activity (Leishmania donovani [29]): >90%

SMILES: O=c1cc(-c2ccc(O)c(O)c2)oc2cc(O)cc(O)c12 [LUTEOLIN]
- Activity (Leishmania donovani [30]): <=90%

SMILES: C/C=C1/C(=O)O[C@]23C=C[C@@H]4C(C(=O)OC)=CO[C@H](O[C@@H]12)[C@@H]43 [PLUMERICIN]
- IC50 (Leishmania donovani [24]): 4100 nM
- IC50 (Leishmania donovani [25]): 7.2 µM

SMILES: O=c1c(O)c(-c2ccc(O)c(O)c2)oc2cc(O)cc(O)c12 [QUERCETIN]
- Activity (Leishmania donovani [31]): <=90%

SMILES: c1ccc2c(c1)Sc1ccccc1S2 [THIANTHRENE]
- IC50 (Leishmania donovani [32]): 23 µM
